For 6 molecules, pest or weed control results are on record in patent US20110086759A1, “CHEMICAL COMPOUNDS” (SYNGENTA CROP PROTECTION, INC., priority 2007, published 2011).

Format in all cases: in vivo
Assay [1] has as its system Amaranthus retoflexus (AMARE). Put plainly: Post-emergence biological efficacy, glasshouse pot test. As to conditions: Amaranthus retroflexus, 312 h. The method, then:
(§1) Seeds of Alopecurus myosuroides (ALOMY), Setaria faberi (SETFA), Echinochloa crus-galli (ECHCG), Solanum nigrum (SOLNI), Amaranthus retoflexus (AMARE) and Ipomea hederaceae (IPOHE) were sown in standard soil in pots. After cultivation for 8 days under controlled conditions in a glasshouse (at 24/16° C., day/night; 14 hours light; 65% humidity), the plants were sprayed with an aqueous spray solution derived from the formulation of the technical active ingredient in acetone/water (50:50) solution containing 0.5% Tween 20 (polyoxyethelyene sorbitan monolaurate, CAS RN 9005-64-5) to give a final dose of 1000 or 250 g/ha of test compound.
(§2) The test plants were then grown on under controlled conditions in a glasshouse (at 24/16° C., day/night; 14 hours light; 65% humidity) and watered twice daily. After 13 days the test was evaluated (100=total damage to plant; 0=no damage to plant).

Assay [2] deals with Solanum nigrum (SOLNI). The assay is described as above. As to conditions: 312 h. As to the method: as §1, §2
Assay [3] concerns Setaria faberi (SETFA). The description is as above. As to conditions: 312 h. The method, then: as §1, §2
The subject of assay [4] is Alopecurus myosuroides (ALOMY). The assay is described as above. Particulars: 312 h. The method, then:
as §1, §2

For assay [5], the system named is Echinochloa crus-galli (ECHCG). Described as above. As to conditions: 312 h. The method, then:
as §1, §2

The test system of assay [6] is Ipomea hederaceae (IPOHE). The description is as above. As to conditions: Ipomoea hederacea, 312 h. The method, then:
as §1, §2

The subject of assay [7] is Amaranthus retoflexus (AMARE). Put plainly: Pre-emergence biological efficacy, glasshouse pot test. Particulars: Amaranthus retroflexus, 312 h; pre-emergence, 1,000 g/ha, evaluated after 13 days (100=total damage; 0=no damage); read-out: Percentage damage AMARE. The method, then:
as §1, with “one day” for “8 days”
(§3) The test plants were then grown under controlled conditions in the glasshouse (at 24/16° C., day/night; 14 hours light; 65% humidity) and watered twice daily. After 13 days the test was evaluated (100=total damage to plant; 0=no damage to plant).

Assay [8] concerns Solanum nigrum (SOLNI). The assay is described as above. Particulars: 312 h, pre-emergence, 1,000 g/ha, evaluated after 13 days (100=total damage; 0=no damage), read-out: Percentage damage SOLNI. The method, then: as §1, with “one day” for “8 days”
as §3

Assay [9] has as its system Setaria faberi (SETFA). The description is as above. Particulars: 312 h. The method, then: as §1, with “one day” for “8 days”
as §3

Assay [10] has as its system Alopecurus myosuroides (ALOMY). Described as above. Particulars: 312 h. As to the method: as §1, with “one day” for “8 days”
as §3

Assay [11] deals with Echinochloa crus-galli (ECHCG). Described as above. As to conditions: 312 h. The method, then:
as §1, with “one day” for “8 days”
as §3

Assay [12] has as its system Ipomea hederaceae (IPOHE). The description is as above. As to conditions: Ipomoea hederacea, 312 h. The method, then:
as §1, with “one day” for “8 days”
as §3

[13] abbreviates: post-emergence, 1,000 g/ha, evaluated after 13 days (100=total damage; 0=no damage), read-out: Percentage damage caused to weed species, AMARE.
The mark [14] stands for this setting: post-emergence, 1,000 g/ha, evaluated after 13 days (100=total damage; 0=no damage), read-out: Percentage damage caused to weed species, SOLNI.
Where [15] appears, read: post-emergence, 1,000 g/ha, evaluated after 13 days (100=total damage; 0=no damage), read-out: Percentage damage caused to weed species, SETFA.
Where [16] appears, read: post-emergence, 1,000 g/ha, evaluated after 13 days (100=total damage; 0=no damage), read-out: Percentage damage caused to weed species, ALOMY.
Where [17] appears, read: post-emergence, 1,000 g/ha, evaluated after 13 days (100=total damage; 0=no damage), read-out: Percentage damage caused to weed species, ECHCG.
Setting [18] is: post-emergence, 1,000 g/ha, evaluated after 13 days (100=total damage; 0=no damage), read-out: Percentage damage caused to weed species, IPOHE.
Setting [19] is: pre-emergence, 1,000 g/ha, evaluated after 13 days (100=total damage; 0=no damage), read-out: Percentage damage SETFA.
[20] abbreviates: pre-emergence, 1,000 g/ha, evaluated after 13 days (100=total damage; 0=no damage), read-out: Percentage damage ALOMY.
[21] abbreviates: pre-emergence, 1,000 g/ha, evaluated after 13 days (100=total damage; 0=no damage), read-out: Percentage damage ECHCG.
The mark [22] stands for this setting: pre-emergence, 1,000 g/ha, evaluated after 13 days (100=total damage; 0=no damage), read-out: Percentage damage IPOHE.

Consider `COC(=O)c1nc(C2CC2)nc(N[C@H]2CCCC[C@@H]2O)c1Cl` (relative stereo) [4-36 (trans), 5-Chloro-2-cyclopropyl-4-(trans-2-hydroxycyclohexyl-amino)-6-methoxy-carbonylpyrimidine], for which the pest or weed control at 1000 g/ha in assay [1] (setting [13]) was 80%; in the assay on Solanum nigrum (SOLNI) [2] (setting [14]), 70%; in the assay with Setaria faberi (SETFA) [3] (setting [15]), 20%; in [4] (setting [16]), 20%; in [5] (setting [17]), 10%; in assay [6] (setting [18]), 40%. Further, the pest or weed control at 1000 g/ha in assay [7] was found to be 80%; in the assay on Solanum nigrum (SOLNI) [8], 70%; with Setaria faberi (SETFA) [9] (setting [19]) it was 20%; in [10] (setting [20]), 10%; in [11] (setting [21]), 20%; in assay [12] (setting [22]), 60%.
In the case of `COC(=O)c1nc(C2CC2)nc(NC2(/C=C/c3ccccc3)CC2)c1Cl` [4-19 (E), 5-Chloro-2-cyclopropyl-6-methoxycarbonyl-4-[1-(2-phenyl-ethenyl)-cyclo-propylamino]-pyrimidine], the pest or weed control at 1000 g/ha came to 100% in assay [1] (setting [13]); 80% in the assay with Solanum nigrum (SOLNI) [2] (setting [14]); 70% in the assay on Setaria faberi (SETFA) [3] (setting [15]); 20% in assay [4] (setting [16]); 40% in assay [5] (setting [17]); 100% in assay [6] (setting [18]). Besides, the pest or weed control at 1000 g/ha in assay [7] was 40%; with Solanum nigrum (SOLNI) [8], 60%; with Setaria faberi (SETFA) [9] (setting [19]), 20%; in [10] (setting [20]) it was 20%; in assay [11] (setting [21]) it was 20%; in [12] (setting [22]), 80%.
For the molecule `COC(=O)c1nc(C2CC2)nc(NC2(/C=C\c3ccccc3)CC2)c1Cl` [4-19 (Z), 5-Chloro-2-cyclopropyl-6-methoxycarbonyl-[(Z)-1-(2-phenylethenyl)-cyclopropylamino]-pyrimidine], the pest or weed control at 1000 g/ha was 100% in assay [1] (setting [13]); 90% in the assay with Solanum nigrum (SOLNI) [2] (setting [14]); 60% in the assay with Setaria faberi (SETFA) [3] (setting [15]); 10% in assay [4] (setting [16]); 30% in assay [5] (setting [17]); 100% in assay [6] (setting [18]). In addition, the pest or weed control at 1000 g/ha in assay [7] amounted to 90%; in the assay on Solanum nigrum (SOLNI) [8], 40%; in the assay with Setaria faberi (SETFA) [9] (setting [19]), 0%; in assay [10] (setting [20]), 20%; in [11] (setting [21]), 20%; in assay [12] (setting [22]) it was 90%.
On to `COC(=O)c1nc(C2CC2)nc(NCCC2=CCCCC2)c1Cl` [Compound 4-215, 5-Chloro-4-[2-(cyclohex-1-enyl)ethylamino]-2-cyclopropyl-6-methoxycarbonyl-pyrimidine], for which the pest or weed control at 1000 g/ha with Solanum nigrum (SOLNI) [2] (setting [14]) amounted to 100%; in the assay on Setaria faberi (SETFA) [3] (setting [15]) it was 50%; in assay [4] (setting [16]) it was 20%; in assay [5] (setting [17]), 30%; in assay [6] (setting [18]), 80%; in assay [7] it was 100%. In addition, the pest or weed control at 1000 g/ha with Solanum nigrum (SOLNI) [8] worked out at 90%; in the assay with Setaria faberi (SETFA) [9] (setting [19]) it was 20%; in assay [10] (setting [20]), 10%; in [11] (setting [21]), 20%; in [12] (setting [22]) it was 90%.
For `COC(=O)c1nc(C2CC2)nc(NCC(F)c2cccc(Br)c2)c1Cl` (stereo not shown) [Compound 4-235, 4-[2-(3-Bromophenyl)-2-fluoro-ethylamino]-5-chloro-2-cyclopropyl-6-methoxycarbonyl-pyrimidine], the pest or weed control at 1000 g/ha in [1] (setting [13]) is 100%; in the assay on Solanum nigrum (SOLNI) [2] (setting [14]) it was 60%; in the assay on Setaria faberi (SETFA) [3] (setting [15]) it was 20%; in assay [4] (setting [16]) it was 0%; in [5] (setting [17]) it was 30%; in assay [6] (setting [18]), 70%. For the same molecule, the pest or weed control at 1000 g/ha (with Setaria faberi (SETFA) [9] (setting [19]); in assay [10] (setting [20]); in assay [11] (setting [21]); in assay [12] (setting [22])) was 0% in each case.
Take `COC(=O)c1nc(-c2ccc(OC)c(F)c2)nc(NCc2ccco2)c1Cl` [Compound 253-48, 5-Chloro-2-(3-fluoro-4-methoxyphenyl)-4-(furan-2-yl-methyl-amino)-6-methoxy-carbonylpyrimidine]: the pest or weed control at 1000 g/ha in [1] (Rate 1,000 g/ha, post-emergence spray, evaluated after 13 days (100=total damage to plant; 0=no damage to plant), read-out: Percentage damage caused to weed species, post-emergence, AMARE) amounted to 70%; in the assay with Solanum nigrum (SOLNI) [2] (Rate 1,000 g/ha, post-emergence spray, evaluated after 13 days (100=total damage to plant; 0=no damage to plant), read-out: Percentage damage caused to weed species, post-emergence, SOLNI) it was 40%; in the assay with Setaria faberi (SETFA) [3] (Rate 1,000 g/ha, post-emergence spray, evaluated after 13 days (100=total damage to plant; 0=no damage to plant), read-out: Percentage damage caused to weed species, post-emergence, SETFA), 0%; in [4] (Rate 1,000 g/ha, post-emergence spray, evaluated after 13 days (100=total damage to plant; 0=no damage to plant), read-out: Percentage damage caused to weed species, post-emergence, ALOMY) it was 0%; in [5] (Rate 1,000 g/ha, post-emergence spray, evaluated after 13 days (100=total damage to plant; 0=no damage to plant), read-out: Percentage damage caused to weed species, post-emergence, ECHCG), 0%; in assay [6] (Rate 1,000 g/ha, post-emergence spray, evaluated after 13 days (100=total damage to plant; 0=no damage to plant), read-out: Percentage damage caused to weed species, post-emergence, IPOHE) it was 20%. Also, the pest or weed control at 1000 g/ha amounted to 0% in the assay on Setaria faberi (SETFA) [9] (pre-emergence, rate 1,000 g/ha, evaluated after 13 days (100=total damage to plant; 0=no damage), read-out: Percentage damage caused to weed species, SETFA); 0% in [10] (pre-emergence, rate 1,000 g/ha, evaluated after 13 days (100=total damage to plant; 0=no damage), read-out: Percentage damage caused to weed species, ALOMY); 0% in assay [11] (pre-emergence, rate 1,000 g/ha, evaluated after 13 days (100=total damage to plant; 0=no damage), read-out: Percentage damage caused to weed species, ECHCG); 0% in [12] (pre-emergence, rate 1,000 g/ha, evaluated after 13 days (100=total damage to plant; 0=no damage), read-out: Percentage damage caused to weed species, IPOHE).
